In patent US20240238323A1, “MODIFIED NUCLEOSIDES AND NUCLEOTIDES ANALOGS AS ANTIVIRAL AGENTS FOR CORONA AND OTHER VIRUSES” (Emory University, priority 2021, published 2024):
pEC50: −log10 of the molar value. Like-named read-outs stand apart in the source and are kept apart here.

Columns and labels:
SARS-CoV-2 = assay: microbe, parasite or virus in culture; format: cell-based; conditions: for pEC50: read-out: Anti-SARS-COV-2 activity in Vero cells EC50; for EC90: read-out: Anti-SARS-COV-2 activity in Vero cells EC90
[1] = molecular target: SARS-CoV-2 RdRp complex (nsp12-nsp7-nsp8) (Severe acute respiratory syndrome coronavirus 2, UniProt P0DTD1); format: biochemical
[2] = Severe acute respiratory syndrome coronavirus 2, Vero, 48 h
[3] = Severe acute respiratory syndrome coronavirus 2, Vero, 48 h, Vero cells, virus yield, 48 h post-infection
[4] = Severe acute respiratory syndrome coronavirus 2, Vero cells, virus yield, 48 h post-infection

For `CC(C)OC(=O)[C@H](C)N[P@](=O)(OC[C@H]1O[C@@H](n2ncc(=O)[nH]c2=O)C(O)C1O)Oc1ccccc1` (stereo partly drawn), the pEC50 (SARS-CoV-2; [2]) was greater than 5.00.

Work on `Nc1cnn([C@@H]2O[C@H](CO)C(O)C2O)c(=O)n1` (stereo partly drawn) yielded a pEC50 (SARS-CoV-2; [3]) greater than 5.00.

With `COc1cnn([C@@H]2O[C@H](CO)C(O)C2O)c(=O)n1` (stereo partly drawn) the pEC50 (SARS-CoV-2; [3]) was greater than 5.00.

`CC(C)OC(=O)[C@H](C)N[P@](=O)(OC[C@H]1O[C@@H](n2ncc(=O)[nH]c2=O)[C@](C)(O)C1O)Oc1ccccc1` (stereo partly drawn) was tested, and the pEC50 (SARS-CoV-2; [2]) was 5.00.

`Nc1nccc2c1ncn2[C@@H]1O[C@H](CO)C(O)C1O` (stereo partly drawn) showed a pEC50 (SARS-CoV-2; [3]) of 5.22 and an EC90 (SARS-CoV-2; [4]) of 15.2 µM.

With `OC[C@H]1O[C@@H](n2cnc3c(S)ncnc32)C(O)C1O` (stereo partly drawn) the pEC50 (SARS-CoV-2; [3]) was 4.95 and the EC90 (SARS-CoV-2; [4]) was 23.5 µM.

`CC1(O)C(O)[C@@H](CO)O[C@H]1n1ccc(N)nc1=O` (stereo partly drawn) showed a pEC50 (SARS-CoV-2; [3]) of 5.04 and an EC90 (SARS-CoV-2; [4]) of 29.6 µM.

With `CC1(O)C(O)[C@@H](CO)O[C@H]1n1cc(F)c2c(N)ncnc21` (stereo partly drawn) the pEC50 (SARS-CoV-2; [3]) was 5.12 and the EC90 (SARS-CoV-2; [4]) was 28.8 µM.

`CC(C)OC(=O)[C@H](C)NP(=O)(OC[C@H]1O[C@@H](n2cnc3c(N)ncnc32)C(C)(O)C1O)Oc1ccccc1` (stereo partly drawn) gave a pEC50 (SARS-CoV-2; [2]) greater than 5.00.

With `COc1ncnc2c1c(C(F)(F)F)cn2[C@@H]1O[C@H](CO)C(O)C1(C)O` (stereo partly drawn) the pEC50 (SARS-CoV-2; [3]) was greater than 5.00.

`CC1(F)C[C@@H](CO)O[C@H]1n1ccc(=O)[nH]c1=O` (stereo partly drawn) showed a pEC50 (SARS-CoV-2; [3]) of 5.00.

`[N-]=[N+]=NC1C(O)[C@@H](CO)O[C@H]1n1ccc(=O)[nH]c1=O` (stereo partly drawn) was tested, and the pEC50 (SARS-CoV-2; [3]) was greater than 5.00.

`CC(C)OC(=O)[C@H](C)N[P@@](=O)(OC[C@H]1O[C@@H](n2ccc(=O)[nH]c2=O)C(F)C1O)Oc1ccccc1` (stereo partly drawn) showed a pEC50 (SARS-CoV-2; [2]) greater than 5.00.

`C#CC1C(O)[C@@H](CO)O[C@H]1n1cc(F)c(=O)[nH]c1=O` (stereo partly drawn) showed a pEC50 (SARS-CoV-2; [3]) greater than 5.00.

`[N-]=[N+]=NC1C[C@@H](COC(=O)c2ccccc2)O[C@H]1n1ccc(=O)[nH]c1=O` (stereo partly drawn) gave a pEC50 (SARS-CoV-2; [3]) of 5.00.

`O=c1ccn([C@@H]2O[C@H](CO)CC2F)c(=O)[nH]1` (stereo partly drawn) showed a pEC50 (SARS-CoV-2; [3]) greater than 5.00.

For `NC1C=CN([C@@H]2O[C@H](CO)CC2(Cl)Cl)C(=O)N1` (stereo partly drawn), the pEC50 (SARS-CoV-2; [3]) was greater than 5.00.

With `Nc1ccn([C@@H]2O[C@@](CO)(COC(F)F)[C@@H](O)[C@H]2F)c(=O)n1` the pEC50 (SARS-CoV-2; [3]) was greater than 5.00.

Work on `Nc1ccn([C@@H]2O[C@@](CO)(C3CCO3)C(O)C2F)c(=O)n1` (stereo partly drawn) yielded a pEC50 (SARS-CoV-2; [3]) greater than 5.00.

Work on `C#C[C@]1(CO)O[C@@H](n2cnc3c(N)ncnc32)C(O)C1O` (stereo partly drawn) yielded a pEC50 (SARS-CoV-2; [3]) greater than 5.00.

For `C#C[C@]1(CO)O[C@@H](N2C=CC(N)NC2=O)[C@H](O)[C@@H]1O` (stereo partly drawn), the pEC50 (SARS-CoV-2; [3]) was greater than 5.00.

For `C#C[C@]1(CO[P@@](=O)(N[C@@H](C)C(=O)OC(C)C)Oc2ccccc2)O[C@@H](n2ccc(=O)[nH]c2=O)[C@H](O)[C@@H]1O`, the pEC50 (SARS-CoV-2; [2]) was greater than 5.00.

`O=c1ccn([C@@H]2C[C@H](CO)C(O)C2O)c(=O)[nH]1` (stereo partly drawn) was tested, and the pEC50 (SARS-CoV-2; [3]) was greater than 5.00.

For `Nc1nc2c(ncn2[C@@H]2C[C@H](CO)C(O)C2O)c(=O)[nH]1` (stereo partly drawn), the pEC50 (SARS-CoV-2; [3]) was greater than 5.00.

With `Nc1ncnc2c1ccn2[C@@H]1C[C@H](CO)C(O)C1O` (stereo partly drawn) the pEC50 (SARS-CoV-2; [3]) was greater than 5.00.

Compound `Nc1ncnc2c1ncn2[C@@H]1C[C@H](CO)C(O)C1O` (stereo partly drawn) has a pEC50 (SARS-CoV-2; [3]) greater than 5.00.

`CC(C)OC(=O)[C@H](C)NP(=O)(OC[C@H]1C[C@@H](n2cnc3c(N)ncnc32)C(O)C1O)Oc1ccccc1` (stereo partly drawn) gave a pEC50 (SARS-CoV-2; [2]) greater than 5.00.

`CC(C)C(=O)OC[C@@H]1OC[C@H](n2cnc3c(Cl)nc(Cl)nc32)O1` gave a pEC50 (SARS-CoV-2; [3]) of 5.64 and an EC90 (SARS-CoV-2; [4]) of 6.5 µM.

For `COc1nc(Cl)nc2c1ncn2[C@H]1CO[C@@H](CO)O1`, the pEC50 (SARS-CoV-2; [3]) was greater than 5.00.

`Nc1nc2c(ncn2[C@H]2CO[C@@H](CO)O2)c(=O)[nH]1` was tested, and the pEC50 (SARS-CoV-2; [2]) was less than 5.00.

`Nc1nc(N)c2ncn([C@H]3CO[C@@H](CO)O3)c2n1` was tested, and the pEC50 (SARS-CoV-2; [3]) was 5.00.

`CCOC(=O)[C@H](C)NP(=O)(OC[C@@H]1OC[C@H](n2cnc3c(OC)nc(N)nc32)O1)Oc1ccccc1` (stereo partly drawn) gave a pEC50 (SARS-CoV-2; [2]) of less than 5.00.

With `Nc1nc(Cl)nc2c1ncn2[C@H]1CO[C@@H](CO)O1` the pEC50 (SARS-CoV-2; [3]) was less than 5.00.

With `OC[C@@H]1OC[C@H](n2cnc3c(Cl)nc(Cl)nc32)O1` the pEC50 (SARS-CoV-2; [3]) was greater than 5.00.

With `CC(C)OC(=O)[C@H](C)N[P@](=O)(OC[C@@H]1OC[C@H](n2cnc3c(Cl)nc(Cl)nc32)O1)Oc1ccccc1` the pEC50 (SARS-CoV-2; [2]) was less than 5.00.

`OC[C@@H]1CC[C@H](n2cnc3c(Cl)nc(Cl)nc32)C1` was tested, and the pEC50 (SARS-CoV-2; [3]) was greater than 5.00.

Compound `OC[C@@H]1C=C[C@H](n2cnc3c(Cl)nc(Cl)nc32)C1` has a pEC50 (SARS-CoV-2; [3]) greater than 5.00.

`CC(C)OC(=O)[C@H](C)NP(=O)(OC[C@@H]1C=C[C@H](n2cnc3c(Cl)nc(Cl)nc32)C1)Oc1ccccc1` (stereo partly drawn) was tested, and the pEC50 (SARS-CoV-2; [2]) was greater than 5.00.

Work on `CC(C)OC(=O)[C@H](C)NP(=O)(OC[C@@H]1CC[C@H](n2cnc3c(Cl)nc(Cl)nc32)C1)Oc1ccccc1` (stereo partly drawn) yielded a pEC50 (SARS-CoV-2; [2]) greater than 5.00.

In the case of `Nc1ncnc2c([C@H]3O[C@@H](CO)C(O)C3O)cnn12` (stereo partly drawn), the pEC50 (SARS-CoV-2; [3]) was greater than 5.00.

`Nc1ncnc2c([C@@H]3C[C@H](CO)C(O)C3O)c[nH]c12` (stereo partly drawn) gave a pEC50 (SARS-CoV-2; [3]) greater than 5.00.

`OC[C@H]1C[C@@H](c2c[nH]c3c(O)ncnc23)C(O)C1O` (stereo partly drawn) showed a pEC50 (SARS-CoV-2; [3]) greater than 5.00.

`O=c1[nH]c(=O)n([C@H]2C[C@@H](CO)C(O)C2O)cc1F` (stereo partly drawn) showed a pEC50 (SARS-CoV-2; [3]) greater than 5.00.

`Nc1nc(O)c2[nH]cc([C@@H]3C[C@H](CO)C(O)C3O)c2n1` (stereo partly drawn) showed a pEC50 (SARS-CoV-2; [3]) greater than 5.00.

`OC[C@@H]1O[C@H](n2nnc3c(O)ncnc32)C(O)C1O` (stereo partly drawn) showed a pEC50 (SARS-CoV-2; [3]) greater than 5.00.

`Nc1ncnc2c1cnn2[C@H]1O[C@@H](CO)C(O)C1O` (stereo partly drawn) gave a pEC50 (SARS-CoV-2; [3]) greater than 5.00.

Work on `OC[C@@H]1O[C@H](n2ncc3c(S)ncnc32)C(O)C1O` (stereo partly drawn) yielded a pEC50 (SARS-CoV-2; [3]) greater than 5.00.

`O=c1ccn([C@H]2CC(F)(F)[C@@H](CO)S2)c(=O)[nH]1` gave a pEC50 (SARS-CoV-2; [3]) greater than 5.00.

In the case of `CC1(O)C(O)[C@H](n2ccc(NO)nc2=O)S[C@@H]1CO` (stereo partly drawn), the pEC50 (SARS-CoV-2; [3]) was 5.92 and the EC90 (SARS-CoV-2; [4]) was 8.7 µM.

Compound `CC(C)OC(=O)[C@H](C)NP(=O)(OC[C@H]1O[C@@H](n2ccc(N)nc2=O)C(O)C1(C)O)Oc1ccccc1` (stereo partly drawn) has a pEC50 (SARS-CoV-2; [2]) of 5.03 and an EC90 (SARS-CoV-2; [2]) greater than 10 µM.

`CC1(O)C(O)[C@H](n2ccc(N)nc2=O)O[C@@H]1CO` (stereo partly drawn) was tested, and the pEC50 (SARS-CoV-2; [3]) was 6.40 and the EC90 (SARS-CoV-2; [4]) was 3.6 µM.

`O=c1nc(NO)ccn1C1CCC(CO)O1` (stereo not drawn) gave a pEC50 (SARS-CoV-2; [3]) of 5.60 and an EC90 (SARS-CoV-2; [4]) of 83.4 µM.

`O=c1ccn([C@H]2CC[C@@H](CO)O2)c(=O)[nH]1` gave a pEC50 (SARS-CoV-2; [3]) of 5.00.

`Nc1ccn([C@H]2CC[C@@H](CO)O2)c(=O)n1` gave a pEC50 (SARS-CoV-2; [3]) greater than 5.00.

Compound `O=c1cnn([C@@H]2O[C@H](CO)C(O)C2O)c(=O)[nH]1` (stereo partly drawn) [drawing 46] has a pEC50 (SARS-CoV-2; [3]) of 6.12 and an EC90 (SARS-CoV-2; [4]) of 2.5 µM.

For `C[C@@]1(O)C(O)[C@@H](CO)O[C@H]1n1ncc(=O)[nH]c1=O` (stereo partly drawn) [drawing 50], the pEC50 (SARS-CoV-2; [3]) was 5.00.

`C[C@@]1(O)C(O)[C@@H](CO)O[C@H]1n1ncc(=O)[nH]c1=O` (stereo partly drawn) [drawing 58] gave a pEC50 (SARS-CoV-2; Vero cells, virus yield, 48 h post-infection) greater than 5.00.

For `O=c1cnn([C@@H]2O[C@H](CO)C(O)C2O)c(=O)[nH]1` (stereo partly drawn) [drawing 105], the “inhibition of RNA synthesis by RdRp complex” value ([1]; concentrations of 1, 10 and 100 μM) was “not significantly inhibited” and the “inhibition of RNA synthesis by RdRp complex” value ([1]; concentrations of 250 and 500 μM) was “significant inhibition”.
